{"source": "patent US20230172966A1", "about": "“COMPOSITION FOR THE PREVENTION AND TREATMENT OF FOLATE AND/OR VITAMIN B12 DEFICIENCY CONDITIONS, PARTICULARLY HYPERHOMOCYSTEINEMIA” (INPHA RESEARCH S.R.L., priority 2020, published 2023)", "key": {"[1]": {"test": "Gastric Simulated Fluid (GSF) Test", "assay_type": "physicochemical", "procedure": "Gastric Simulated Fluid (GSF) Test.\nFor all the experiments, physiological gastric conditions were reproduced taking into account the volume of gastric fluid on an empty stomach (35-40 mL) (Mudie D M et al. Quantification of gastrointestinal liquid volumes and distribution following a 240 mL dose of water in the fasted state. Mol Pharm. 2014 Sep. 2; 11(9):3039-47) and the fact that in the stomach, the salt concentration is different from that of blood plasma (0.25% vs 0.9%) (Sandra Klein. The Use of Biorelevant Dissolution Media to Forecast the In Vivo Performance of a Drug. AAPS J. 2010 September; 12(3): 397-406).\nThe effect of the alkalizing agent on gastric pH was simulated in vitro by preparing a 0.2% saline solution of NaCl and bringing the pH of the solution to around 1.2-2 with 37% hydrochloric acid diluted 1:5.\nGSF was prepared using the components in table 1, all tests were performed simulating body temperature (37° C.) and performed in triplicate.\n400 ml of GSF was stirred with magnetic stirrer and settled at 37° C. and the three-point digital pH meter was applied. 40 mg of Folic Acid was added to this solution.\nThe bright orange dispersion was stirred for 5 minutes at 200 rpm and then the stirring was stopped.\nThe same experiment was repeated adding 30 mg of Zinc Oxide to the same amount of folic acid. […] Such a pH was maintained in the range 5.0-5.5 also by simulating physiological acid secretion, combining 2 ml of 0.1 M HCl every 15 minutes for a total of 60 minutes."}, "[2]": {"conditions": "non-ionized carboxylic acid form, in contact with gastric fluid (pH 1.5-2.0 empty, 3.5-4.5 full stomach); cited from earlier work"}}}
{"smiles": "[O]=[Zn]", "note": "[Zinc Oxide]", "values": [{"measurement": "pH recorded in GSF after stirring", "setting": "[1]; 30 mg Zinc Oxide + 40 mg folic acid in 400 ml GSF (initial pH 1.2-2), 37° C., after 5 minutes at 200 rpm", "value": 5.2}, {"measurement": "pH maintained under simulated physiological acid secretion", "setting": "[1]; 30 mg Zinc Oxide + 40 mg folic acid in 400 ml GSF, 2 ml of 0.1 M HCl every 15 minutes for a total of 60 minutes", "value": "5.0-5.5"}]}
{"smiles": "Nc1nc2ncc(CNc3ccc(C(=O)N[C@@H](CCC(=O)O)C(=O)O)cc3)nc2c(=O)[nH]1", "note": "[folic acid, pteroyl(mono)-glutamic acid]", "values": [{"measurement": "observation of folic acid solubility/precipitation in GSF", "setting": "[1]; 40 mg Folic Acid alone in 400 ml GSF pH 1.2-2, 37° C., stirred 5 minutes at 200 rpm, observed after 10 minutes", "value": "complete precipitation"}, {"measurement": "observation of folic acid dissolution in GSF with Zinc Oxide", "setting": "[1]; 40 mg folic acid + 30 mg Zinc Oxide in 400 ml GSF, 37° C., stirred 5 minutes at 200 rpm", "value": "translucent orange solution in the absence of precipitation"}, {"measurement": "water solubility", "setting": "[2]", "value": "< 10", "unit": "µg/mL"}]}
